Results on 14 molecules are retold here after ChEMBL document CHEMBL1201862, “PubChem BioAssay data set” (2004).

Active and inactive are the calls of the source.

A short description of assay [1]: inhibitors of firefly luciferase expression or activity, dose response, H4 neuroglioma cells, luminescence (AID 1990). The format is functional, cell-based.
Assay [2] in a line: luciferase reporter signal reduction – luminescence, H4-C neuroglioblastoma cells, dose response (AID 2458).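 Also: H4 neuroglioblastoma cells stably carrying a luciferase reporter gene fusion.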 It counts as functional, cell-based. (Reporter assays use an easily measured gene product as a stand-in for the process of interest.)
The nature of assay [3]: cells. It counts as functional, cell-based.
Assay [4] in a line: inhibitors of SNCA 5'UTR-driven reporter translation, confirmation, H4 neuroglioma cells, luminescence (AID 1988). It counts as functional, cell-based.
The nature of assay [5]: inhibitors of SNCA 5'UTR-driven translation, confirmation, luminescence, H4 neuroglioblastoma cells, dose confirmation (AID 2454).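 Also: H4 neuroglioblastoma cells carrying an alpha-synuclein 5'UTR luciferase reporter; potency for inhibition of the luciferase signal.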 The format is functional, cell-based.
The nature of assay [6]: cytotoxicity in HEK-293T cells, dose response, cytotoxicity control for TCR NF-kB inhibitor project, luminescence, T-cell screen hits (AID 489026).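 Also: cells exposed to compound about 14 hours before the viability readout.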 It counts as functional, cell-based.
The nature of assay [7]: cells. The format is functional, cell-based. This is another data set of the same source.
Assay [8] has as its target T1, Nuclear receptor subfamily 0 group B member 1 (Homo sapiens, UniProt P51843).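 Also: HEK293T cells transfected with SF-1 and DAX-1 plus StAR promoter luciferase reporter.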
T1 sequence (P51843 whole entry): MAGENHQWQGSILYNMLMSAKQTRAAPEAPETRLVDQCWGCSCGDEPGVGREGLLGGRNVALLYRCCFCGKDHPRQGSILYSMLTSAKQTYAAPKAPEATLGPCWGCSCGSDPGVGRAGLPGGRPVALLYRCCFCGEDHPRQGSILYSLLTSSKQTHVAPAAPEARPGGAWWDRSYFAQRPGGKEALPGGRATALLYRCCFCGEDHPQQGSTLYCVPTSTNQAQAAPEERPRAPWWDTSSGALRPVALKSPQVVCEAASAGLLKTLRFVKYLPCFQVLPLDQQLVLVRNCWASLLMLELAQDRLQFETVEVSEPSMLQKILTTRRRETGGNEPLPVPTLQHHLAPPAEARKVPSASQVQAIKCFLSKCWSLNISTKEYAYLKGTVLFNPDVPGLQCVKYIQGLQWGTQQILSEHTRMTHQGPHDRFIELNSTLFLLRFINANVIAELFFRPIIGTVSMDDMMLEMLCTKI
The format is functional, cell-based.

A further assay deals with Paired box protein Pax-8 (Homo sapiens, UniProt Q06710). Kind of assay: inhibitors of PAX8-driven TPO luciferase reporter, dose response, RMG-I cells, cherry-pick (AID 687027).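 Also: luciferase reporter driven by Pax8 target thyroperoxidase promoter measured by SteadyGlo luminescence.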 The format is functional, cell-based.
The nature of assay [9]: HeLa 2N DNA content increase, dose response, cell-based, IC50 (AID 1117349). It counts as functional.
Assay [10] in a line: HeLa 4N DNA content increase, dose response, cell-based, IC50 (AID 1117351). The format is functional.
Assay [11] in a line: miR-122 activators in hepatoma reporter cells, dose response, cell-based, Huh7 psiCHECK-miR122, Renilla luciferase, cherry-picked (AID 651956).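 Also: huh7 hepatoma cells stably carrying a psiCHECK-2 miR-122 sensor plasmid; renilla luciferase signal reporting endogenous miR-122 activity after 48 h compound exposure.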 It counts as functional.
Assay [12] is described as follows: HEK293T cytotoxicity, dose response, cytotoxicity control for miR-122 modulator project, cell-based, inhibitor set, cherry-pick, set 2 (AID 720697). It counts as functional.
A short description of assay [13]: THP-1 cell cytotoxicity, dose response, cytotoxicity control for non-replicating M. tuberculosis project (AID 489025). It counts as functional.
A short description of assay [14]: HepG2 cell cytotoxicity, dose response, cytotoxicity control for non-replicating M. tuberculosis project (AID 489018). Particulars: Mycobacterium tuberculosis. The format is functional.
Assay [15] is described as follows: Vero E6 cell cytotoxicity, dose response, cytotoxicity control for non-replicating M. tuberculosis project, secondary assay (AID 492998). The format is functional, VeroE6. The following applies: Vero C1008.
Assay [16] can be described thus: cells. The format is functional.
Assay [17] in a line: HepG2 cell cytotoxicity, dose response, cytotoxicity control, ATP luminescence, cherry-pick, activator set 2 (AID 1053143). The format is functional, cell-based.
Assay [18] can be described thus: Shn3 3'UTR reporter inhibitors, dose response, cell-based, Clone20 osteoblasts, firefly luciferase, cherry-picked (AID 624132).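 Also: firefly luciferase luminescence from reporter carrying the Shn3 3'UTR in osteoblasts.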 It counts as functional.
Assay [19] is described as follows: HepG2 cell cytotoxicity, dose response, cytotoxicity control for Shn3 inhibitor project, CellTiter-Glo, cherry-picked (AID 624134). The format is functional, cell-based.
Assay [20] in a line: control 3'UTR Renilla luciferase suppression, dose response, counter-screen for Shn3 inhibitor project, cell-based, Clone20-Shn3RL, cherry-picked (AID 624133). The format is functional. Background: The purpose of a counterscreen is to sort out artefacts and off-target activity.
For another assay, the system named is INS1. Kind of assay: beta cell apoptosis inhibitors, cytokine rescue, dose response, luminescence, retest (AID 449756).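 Also: cell death triggered by IL-1 beta plus TNF-alpha plus IFN-gamma mixture; protective hits raise ATP signal compared with cytokine alone wells.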 It counts as functional, cell-based. Particulars: Rattus norvegicus.
The next assay has as its target Galanin receptor type 3 (Homo sapiens, UniProt O60755). Kind of assay: Fluorescence-based cell-based primary high throughput dose response assay to identify antagonists of the Galanin Receptor 3 (GalR3). The format is functional.
Assay [21] in a line: cells. The format is functional, cell-based. The following applies: HEK-CNG.
Assay [22] is described as follows: HepG2 cell cytotoxicity, dose response, cytotoxicity control, plate reader, cherry-pick, antagonist series (AID 743416). It counts as functional, cell-based.
Assay [23] can be described thus: LGR2 antagonists, dose response, cell-based, HEK293, CRE-luciferase reporter, cherry pick, set 2 (AID 743343).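 Also: transfected cells were stimulated with diluted bursicon conditioned medium after compound addition.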 It counts as functional.
A short description of assay [24]: MC4R antagonists, dose response, counter-screen for LGR2 antagonist project, cell-based, plate reader, cherry pick (AID 743444).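 Also: transfected HEK 293 cells stimulated with alpha-MSH peptide; potency of inhibitors of the alpha-MSH evoked signal.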 The format is functional.
Assay [25] is described as follows: HEK293 cell cytotoxicity, dose response, cytotoxicity control, plate reader, cherry-picked samples (AID 743446). It counts as functional, cell-based.
A further assay addresses Major prion protein (Homo sapiens, UniProt P04156). It counts as functional, cell-based.
Assay [26] is described as follows: cells.
A short description of assay [27]: Luminescence Cell-Based Dose Response HTS to Identify Inhibitors of 5'UTR Stem-Loop Driven Prion Protein mRNA Translation in H4 Neuroglioblastoma Cells. [Related pubchem assays: 1827 (Project Summary), 1813 (Primary HTS)]. It counts as functional.
A further assay addresses fMet-Leu-Phe receptor (Homo sapiens, UniProt P21462). Kind of assay: FPR ligands, dose response (AID 519). It counts as functional.
The target of the next assay is Cytochrome P450 2D6 (Homo sapiens, UniProt P10635).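 Also: CYP2D6 member of a cytochrome P450 panel assay.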
The next assay concerns the target Cytochrome P450 3A4 (Homo sapiens, UniProt P08684).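 Also: CYP3A4 tested as one member of a cytochrome P450 panel screen.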
Another assay has as its target T2, Protein skinhead-1 (Caenorhabditis elegans, UniProt P34707).
T2 sequence (P34707 whole entry): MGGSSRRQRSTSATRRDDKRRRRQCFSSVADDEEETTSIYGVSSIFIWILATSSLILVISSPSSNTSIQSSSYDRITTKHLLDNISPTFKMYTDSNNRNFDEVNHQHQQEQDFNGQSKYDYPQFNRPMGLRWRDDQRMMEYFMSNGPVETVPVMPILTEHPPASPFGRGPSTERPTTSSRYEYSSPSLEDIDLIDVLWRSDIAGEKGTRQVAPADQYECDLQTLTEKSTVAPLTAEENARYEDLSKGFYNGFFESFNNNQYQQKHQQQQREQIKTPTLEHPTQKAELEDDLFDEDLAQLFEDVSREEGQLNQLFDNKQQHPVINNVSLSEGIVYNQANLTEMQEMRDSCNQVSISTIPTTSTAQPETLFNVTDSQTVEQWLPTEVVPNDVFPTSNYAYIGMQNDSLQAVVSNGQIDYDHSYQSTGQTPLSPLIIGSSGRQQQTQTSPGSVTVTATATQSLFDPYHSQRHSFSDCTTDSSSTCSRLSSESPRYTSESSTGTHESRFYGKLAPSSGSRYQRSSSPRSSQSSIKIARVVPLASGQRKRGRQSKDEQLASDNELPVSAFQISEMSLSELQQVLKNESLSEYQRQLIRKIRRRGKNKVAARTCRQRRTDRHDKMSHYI
The format is functional.

Assay [28] deals with T3, Oxysterols receptor LXR-beta (Homo sapiens, UniProt P55055).
T3 sequence (P55055 whole entry): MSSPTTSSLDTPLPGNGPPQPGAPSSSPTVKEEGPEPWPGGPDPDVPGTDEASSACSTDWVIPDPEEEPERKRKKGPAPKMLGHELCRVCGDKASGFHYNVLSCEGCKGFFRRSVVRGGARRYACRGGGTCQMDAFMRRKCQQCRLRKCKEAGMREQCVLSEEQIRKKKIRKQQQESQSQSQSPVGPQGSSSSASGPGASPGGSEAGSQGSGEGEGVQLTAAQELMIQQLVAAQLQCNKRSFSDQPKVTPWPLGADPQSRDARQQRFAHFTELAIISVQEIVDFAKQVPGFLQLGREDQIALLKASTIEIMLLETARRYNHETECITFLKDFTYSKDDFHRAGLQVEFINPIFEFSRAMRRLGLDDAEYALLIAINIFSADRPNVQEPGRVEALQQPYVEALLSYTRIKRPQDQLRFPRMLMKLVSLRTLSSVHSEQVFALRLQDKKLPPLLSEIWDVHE
The format is functional, cell-based.

Assay [29] can be described thus: non-specific cell cytotoxicity, dose response, cytotoxicity control for PAX8 inhibitor project, plate reader, dry powder samples (AID 743021). The format is functional, cell-based.

What is called EC50 is the midpoint of the concentration-response curve. The IC50 is the concentration that inhibits the measured activity by half. As a reminder, the AC50 is the concentration at which the activity in the assay is half-maximal. Broadly, the CC50 is the concentration giving 50% cytotoxicity. The term Ki denotes a dissociation constant, usually derived from enzyme kinetics or from competition with a known ligand.

With `COc1cc([C@@H]2c3cc4c(cc3[C@H](O)[C@H]3COC(=O)[C@H]23)OCO4)cc(OC)c1OC` [PODOFILOX], the EC50 in [1] was < 0.1 µM (active); in assay [2], 0.015 µM (active); in “cells [3]” it was 0.014 µM (active); in assay [4], < 0.1 µM (active); in [5], 0.008 µM (active). The IC50 was > 80 µM (inactive) in [6]; > 67.5 µM (inactive) in the assay “cells [7]”; 2.15 µM (active) in assay [8]; 0.0089 µM (active) in assay [9]; 0.0077 µM (active) in assay [10]. Besides, on Paired box protein Pax-8, the AC50 is < 0.26 µM (active).

Regarding `CC(C)C#Cc1ccc2c(c1)O[C@H](CN(C)C(=O)c1ccncc1)[C@@H](C)CN([C@@H](C)CO)S2(=O)=O`, the AC50 in assay [11] was 11.6 µM (active); in assay [12], 0.461 µM (active).

Consider `Cc1cc(NCc2ccccn2)n2ncc(-c3ccccc3)c2n1`, for which the values for the CC50 in assay [13], in assay [14] and in assay [15] were 6.66 µM (active), 4.11 µM (active) and 11.8 µM (active), respectively. Further, in the assay “cells [16]”, the IC50 is 1.4 µM (active). For the same molecule, in assay [17], the AC50 is 26 µM (active).

Take `COc1ccccc1CNc1nc(NCC2CC2)nc2ccsc12`: the AC50 in [18] was 4.16 µM (active); in assay [19], 39.9 µM (active); in assay [20] it was 6.69 µM (active); in assay [11], 29.6 µM (active); in [12] it was 6.06 µM (active).

For `Cn1nc(C(C)(C)C)cc1C(=O)NCc1ccc2c(c1)OCO2`, the AC50 is 3.31 µM (active) with INS1, 1.17 µM (active) in [18], 2.31 µM (active) in assay [19] and 1.02 µM (active) in assay [20]. The IC50 at Galanin receptor type 3 was 1.83 µM (active). For the same molecule, the EC50 in the assay “cells [21]” was > 29.9 µM (inactive).

As to `c1ccc(-n2nnnc2Sc2ncnc3sc4c(c23)CCCC4)cc1`, the AC50 was > 52 µM (inactive) in assay [22], 5.02 µM (active) in [23], 5.73 µM (active) in assay [24] and 42.3 µM (active) in assay [25].

`N=C(N)NS(=O)(=O)c1ccc(NC(=S)NC(=O)c2sc3ccccc3c2Cl)cc1`: the results for the IC50 on Major prion protein and in the assay “cells [26]” were 5.54 µM (active) and > 138 µM (inactive), respectively.

With `O=C(c1cc(-c2ccc(Cl)cc2Cl)on1)N1CCOCC1`, the concentration for a half-maximal effect (EC50) in [27] is > 120 µM (not active). For the same molecule, the IC50 (in the assay “cells [7]”; in assay [8]) was > 67.5 µM (inactive) each time. Besides, the AC50 was 7.17 µM (active) in assay [23] and 7.28 µM (active) in assay [24].

With `CCOc1ccc(C2C(C(=O)c3cccs3)=C(O)C(=O)N2CCCn2ccnc2)cc1` (centres undefined), at fMet-Leu-Phe receptor, the Ki was 57.1 µM (inactive).

As for `CCc1c(C)nc2ncnn2c1NCCc1ccc(OC)cc1`, the results for the IC50 (in assay [6]; on Galanin receptor type 3) were > 80 µM (inactive) and 3.2 µM (active), respectively. The concentration at half-maximal activity (AC50) with INS1 was 5.39 µM (active); at Cytochrome P450 2D6, 12.6 µM (inconclusive); on Cytochrome P450 3A4 it was 25.1 µM (inconclusive). In “cells [21]”, the EC50 is > 29.9 µM (inactive).

As to `Clc1ccc(Nc2ccc3ccccc3n2)cc1`, the IC50 at Protein skinhead-1 is > 100 µM (inactive). Further, the EC50 in [28] is > 67.5 µM (inactive).

As for `S=C(c1ccc(-c2ccc(Cl)cc2)o1)N1CCCCC1`, in assay [28], the EC50 is > 67.5 µM (inactive).

On to `CCc1cc2c(=O)c(-c3ccc4c(c3)OCO4)coc2c(CN(C)C)c1O`, for which the IC50 on Major prion protein is 2.07 µM (active); in “cells [26]”, > 138 µM (inactive).

As for `Cc1ccc(S(=O)(=O)N(C)C[C@H]2Oc3ccc(NS(=O)(=O)c4ccc(F)cc4)cc3CC(=O)N([C@H](C)CO)C[C@H]2C)cc1`, the values for the half-maximal activity concentration (AC50) (on Paired box protein Pax-8; in assay [29]) were 21.5 µM (active) and 52.8 µM (active), respectively.
